Assay [1] concerns PC12-HS cells. Put plainly: Evaluation B: neurite-outgrowth action in presence of NGF. Type of assay: cell-based, rat. The note with it: for Percentage (%) of cells with neurite outgrowth: 50 μl/well of 2 μg/ml test solution + NGF final 5 ng/ml; for Percentage (%) of cells with neurite outgrowth / Evaluation B: Neurite-outgrowth action: 3 days; for Evaluation B: Neurite-outgrowth action: 50 μl of 400 ng/ml test sample solution per well + NGF final 5 ng/ml.

Assay [2] concerns PC12-HS cells. Put plainly: Evaluation A: neurocyte (cell)-growth-promoting action, ALAMAR BLUE. In kind it is cell-based, rat. Here is the method:
Then, the effects of test samples were judged as follows:
The relative value of 140 to 199: Equivalent effect to that of NK-4, symbol (∘); The relative value of 200 or higher: Stronger effect than that of NK-4, symbol ([…]). • The results are in Table 6.
The relative fluorescent intensity of each well was determined by using the fluorescent intensity of each well with cells, which had been cultured by admixing with D-MEM medium containing 10% by volume of FBS without any of the compounds, and the intensity of the resulting culture was regarded as 100%. The results are expressed as cell survival percentages (%) in Table 9. […]
The test was conducted twice for each test sample in a triplicate manner and the data were averaged.
Seven compounds as in Table 17, NK-234, NK-26, NK-9815, NK-9694, NK-28 and NK-147 as well as NK-4, were each dissolved in DMSO to give a concentration of 5 mg/ml. […] The test was conducted twice for each test sample in a triplicate manner and the data were averaged.

[3] abbreviates: 100 μl/well of 100 ng/ml test solution, 3 days, control = 100.

`CC1=CS\C(=C/C=C(\C=C\c2scc(C)[n+]2C)c2scc(C)[n+]2C)N1C.[I-].[I-]` [NK-2]: the “Percentage (%) of cells with neurite outgrowth” value (shortened to “Percentage (%) of cells”) with PC12-HS cells [1] is 4%. In addition, the “Action of enhancing cell growth (%)” value in the assay with PC12-HS cells [2] (setting [3]) is 126%.

With `CCN1C(C)=CS\C1=C/C=C(\C=C\c1scc(C)[n+]1CC)c1scc(C)[n+]1CC.[I-].[I-]` [NK-13], in the assay on PC12-HS cells [1], the “Percentage (%) of cells” value was 5%. Besides, the “Action on neurite outgrowth (%)” value in the assay on PC12-HS cells [1] (compound concentration 80 ng/ml), in the assay on PC12-HS cells [1] (compound concentration 400 ng/ml), in the assay on PC12-HS cells [1] (compound concentration 2000 ng/ml) and in the assay on PC12-HS cells [1] (compound concentration 10000 ng/ml) was 10< % throughout. The “Action of enhancing cell growth (%)” value in the assay on PC12-HS cells [2] (setting [3]) amounted to 125%; with PC12-HS cells [2] (compound concentration 25 ng/ml) it was 126 ± 12%; in the assay with PC12-HS cells [2] (compound concentration 50 ng/ml), 140 ± 7%; in the assay on PC12-HS cells [2] (compound concentration 100 ng/ml), 231 ± 84%; in the assay on PC12-HS cells [2] (compound concentration 200 ng/ml), 209 ± 24%.

As for `CCCCN1C(C)=CS\C1=C/C=C(\C=C\c1scc(C)[n+]1CCCC)c1scc(C)[n+]1CCCC.[I-].[I-]` [NK-24], the “Percentage (%) of cells” value with PC12-HS cells [1] was 33%. The “Action of enhancing cell growth (%)” value with PC12-HS cells [2] (setting [3]) was 581%.

Take `CCCCCCCCCCCCN1C(C)=CS\C1=C/C=C(/C=C/c1scc(C)[n+]1CCCCCCCCCCCC)c1scc(C)[n+]1CCCCCCCCCCCC.[I-].[I-]` [NK-32]: the “Percentage (%) of cells” value in the assay with PC12-HS cells [1] was 16%. For the same compound, the “Action of enhancing cell growth (%)” value with PC12-HS cells [2] (setting [3]) was 199%.

Take `CCCCN1C(C)=CS\C1=C/C=C(\C=C\c1scc(C)[n+]1CCCC)c1scc(C)[n+]1CCCC.[Cl-].[Cl-]` [NK-56]: the “Percentage (%) of cells” value in the assay on PC12-HS cells [1] was 28%.

As for `CCN1C(C)=CS/C1=C\C=C\c1scc(C)[n+]1CC` [NK-67], the “Evaluation B: Neurite-outgrowth action” value in the assay on PC12-HS cells [1] is recorded as “∘ (The test sample with a neurite outgrowth rate of 30% or higher was judged to be equivalent or more (∘) compared with NK-4)”.

Consider `CCN1/C(=C/C=C/c2oc3ccccc3[n+]2CC)Oc2ccccc21.[I-]` [NK-85], for which the “Evaluation B: Neurite-outgrowth action” value in the assay on PC12-HS cells [1] is “∘ (The test sample with a neurite outgrowth rate of 30% or higher was judged to be equivalent or more (∘) compared with NK-4)”.

On to `CN1/C(=C/C=C/c2oc3ccccc3[n+]2C)Oc2ccccc21.[I-]` [NK-86], for which the “Evaluation B: Neurite-outgrowth action” value with PC12-HS cells [1] is “∘ (The test sample with a neurite outgrowth rate of 30% or higher was judged to be equivalent or more (∘) compared with NK-4)”.

As for `CN1/C(=C/c2oc3ccccc3[n+]2C)Oc2ccccc21.[I-]` [NK-87], the “Evaluation B: Neurite-outgrowth action” value in the assay with PC12-HS cells [1] was “∘ (The test sample with a neurite outgrowth rate of 30% or higher was judged to be equivalent or more (∘) compared with NK-4)”.

With `CN1/C(=C/C=C/C=C/C=C/C2=[N+](C)c3ccccc3C2(C)C)C(C)(C)c2ccccc21.[I-]` [NK-125], the “Evaluation B: Neurite-outgrowth action” value in the assay with PC12-HS cells [1] is given as “∘ (The test sample with a neurite outgrowth rate of 30% or higher was judged to be equivalent or more (∘) compared with NK-4)”.

Regarding `CCN1/C(=C/C=C/C=C/c2sc3ccccc3[n+]2CC)Sc2ccccc21.[I-]` [NK-136], the “Evaluation B: Neurite-outgrowth action” value with PC12-HS cells [1] is reported as “∘ (The test sample with a neurite outgrowth rate of 30% or higher was judged to be equivalent or more (∘) compared with NK-4)”.

On to `CCCCCCC[n+]1c(/C=C/c2ccc(N(C)C)cc2)ccc2ccccc21.[I-]` [NK-231], for which the “Evaluation B: Neurite-outgrowth action” value in the assay with PC12-HS cells [1] is recorded as “∘ (The test sample with a neurite outgrowth rate of 30% or higher was judged to be equivalent or more (∘) compared with NK-4)”.

For the compound `CCCN1C(C)=CS\C1=C/C=C(\C=C\c1scc(C)[n+]1CCC)c1scc(C)[n+]1CCC.[I-].[I-]` [NK-237], in the assay on PC12-HS cells [1], the “Percentage (%) of cells” value amounted to 16%. In addition, the “Action of enhancing cell growth (%)” value in the assay on PC12-HS cells [2] (setting [3]) is 212%.

As to `CCCCCCCN1C(C)=CS/C1=C\c1scc(C)[n+]1CCCCCCC.[I-]` [NK-266], the “Evaluation B: Neurite-outgrowth action” value in the assay on PC12-HS cells [1] is recorded as “∘ (The test sample with a neurite outgrowth rate of 30% or higher was judged to be equivalent or more (∘) compared with NK-4)”.

As to `CCN1/C(=C/c2cc[n+](CC)c3ccccc23)C=Cc2ccccc21.[I-]` [NK-276], in the assay with PC12-HS cells [1], the “Evaluation B: Neurite-outgrowth action” value is “∘ (The test sample with a neurite outgrowth rate of 30% or higher was judged to be equivalent or more (∘) compared with NK-4)”.

Take `CCCCCCC[n+]1c(C)csc1/C=C/c1ccc(N(C)C)cc1.[Cl-]` [NK-279]: the “Evaluation B: Neurite-outgrowth action” value with PC12-HS cells [1] is “∘ (The test sample with a neurite outgrowth rate of 30% or higher was judged to be equivalent or more (∘) compared with NK-4)”.

On to `CC(C)CC[n+]1ccc(/C=C/c2ccc(N(C)C)cc2)c2ccccc21.[I-]` [NK-282], for which the “Evaluation B: Neurite-outgrowth action” value with PC12-HS cells [1] is “∘ (The test sample with a neurite outgrowth rate of 30% or higher was judged to be equivalent or more (∘) compared with NK-4)”.

For the compound `CC[n+]1c(/C=C/C=C/c2ccc(N(C)C)cc2)sc2ccccc21.[I-]` [NK-375], in the assay with PC12-HS cells [1], the “Evaluation B: Neurite-outgrowth action” value was “∘ (The test sample with a neurite outgrowth rate of 30% or higher was judged to be equivalent or more (∘) compared with NK-4)”.

With `CCN1/C(=C/C=C/c2sc3ccc4ccccc4c3[n+]2CC)Sc2ccc3ccccc3c21.[I-]` [NK-382], in the assay with PC12-HS cells [1], the “Evaluation B: Neurite-outgrowth action” value is given as “∘ (The test sample with a neurite outgrowth rate of 30% or higher was judged to be equivalent or more (∘) compared with NK-4)”.

`CCCCN1C(C)=CS/C1=C\c1scc(C)[n+]1CCCC.[I-]` [NK-399]: in the assay on PC12-HS cells [1], the “Evaluation B: Neurite-outgrowth action” value is reported as “∘ (The test sample with a neurite outgrowth rate of 30% or higher was judged to be equivalent or more (∘) compared with NK-4)”.

`CCCC[n+]1c(C=Cc2ccc(N(C)C)cc2)sc2ccccc21.[I-]` [NK-490]: the “Evaluation B: Neurite-outgrowth action” value in the assay with PC12-HS cells [1] was “∘ (The test sample with a neurite outgrowth rate of 30% or higher was judged to be equivalent or more (∘) compared with NK-4)”.

Consider `CC[n+]1ccc(/C=C/C=C/c2ccc(N(C)C)cc2)c2ccccc21.[I-]` [NK-526], for which the “Evaluation B: Neurite-outgrowth action” value with PC12-HS cells [1] is on record as “∘ (The test sample with a neurite outgrowth rate of 30% or higher was judged to be equivalent or more (∘) compared with NK-4)”.

In the case of `Cc1ccc2c(c1)S/C(=C\c1sc3cc(C)ccc3[n+]1C)N2C.[I-]` [NK-594], the “Evaluation B: Neurite-outgrowth action” value with PC12-HS cells [1] is recorded as “∘ (The test sample with a neurite outgrowth rate of 30% or higher was judged to be equivalent or more (∘) compared with NK-4)”.

In the case of `CC[n+]1ccc(/C=C/c2ccc3c(c2)OCO3)c2ccccc21.[I-]` [NK-629], the “Evaluation B: Neurite-outgrowth action” value in the assay on PC12-HS cells [1] is on record as “∘ (The test sample with a neurite outgrowth rate of 30% or higher was judged to be equivalent or more (∘) compared with NK-4)”.

In the case of `CCN1/C(=C/C=C/c2cc[n+](CC)c3ccccc23)Oc2ccccc21.[I-]` [NK-741], in the assay on PC12-HS cells [1], the “Evaluation B: Neurite-outgrowth action” value was “∘ (The test sample with a neurite outgrowth rate of 30% or higher was judged to be equivalent or more (∘) compared with NK-4)”.

With `CCN1/C(=C/c2cc[n+](CC)c3ccccc23)Sc2ccccc21.[I-]` [NK-750], the “Evaluation B: Neurite-outgrowth action” value in the assay on PC12-HS cells [1] is “∘ (The test sample with a neurite outgrowth rate of 30% or higher was judged to be equivalent or more (∘) compared with NK-4)”.

For `CCN1/C(=C/c2oc3ccccc3[n+]2CC)Oc2ccccc21.[I-]` [NK-863], the “Evaluation B: Neurite-outgrowth action” value with PC12-HS cells [1] is reported as “∘ (The test sample with a neurite outgrowth rate of 30% or higher was judged to be equivalent or more (∘) compared with NK-4)”.

As for `CCN1/C(=C/c2ccc3ccccc3[n+]2CC)C=Cc2ccccc21.[Br-]` [NK-1046], in the assay with PC12-HS cells [1], the “Evaluation B: Neurite-outgrowth action” value is recorded as “∘ (The test sample with a neurite outgrowth rate of 30% or higher was judged to be equivalent or more (∘) compared with NK-4)”.

Regarding `CCN1/C(=C/c2oc3ccccc3[n+]2CC)Sc2ccccc21.[I-]` [NK-1049], the “Evaluation B: Neurite-outgrowth action” value in the assay on PC12-HS cells [1] is listed as “∘ (The test sample with a neurite outgrowth rate of 30% or higher was judged to be equivalent or more (∘) compared with NK-4)”.

For the compound `CC[n+]1c(/C=C/c2ccc(N(C)C)cc2)[se]c2ccccc21.[I-]` [NK-1055], the “Evaluation B: Neurite-outgrowth action” value in the assay with PC12-HS cells [1] is “∘ (The test sample with a neurite outgrowth rate of 30% or higher was judged to be equivalent or more (∘) compared with NK-4)”.

Take `CCN1/C(=C/c2sc3ccccc3[n+]2CC)Sc2ccccc21.[Br-]` [NK-1560]: the “Evaluation B: Neurite-outgrowth action” value with PC12-HS cells [1] is “∘ (The test sample with a neurite outgrowth rate of 30% or higher was judged to be equivalent or more (∘) compared with NK-4)”.

With `CN1/C(=C/C2=[N+](C)c3ccccc3C2(C)C)Oc2ccccc21.[I-]` [NK-1684], in the assay with PC12-HS cells [1], the “Evaluation B: Neurite-outgrowth action” value was “∘ (The test sample with a neurite outgrowth rate of 30% or higher was judged to be equivalent or more (∘) compared with NK-4)”.

In the case of `CCN1/C(=C/C=C/C=C/c2sc3ccc4ccccc4c3[n+]2CC)Sc2ccc3ccccc3c21.[I-]` [NK-2409], in the assay on PC12-HS cells [1], the “Evaluation B: Neurite-outgrowth action” value is “∘ (The test sample with a neurite outgrowth rate of 30% or higher was judged to be equivalent or more (∘) compared with NK-4)”.

In the case of `CCN1/C(=C/C2=CC(=C/C=C/C3=CC(=C/c4sc5ccccc5[n+]4CC)/CC(C)(C)C3)/CC(C)(C)C2)Sc2ccccc21.[O-][Cl+3]([O-])([O-])[O-]` [NK-2545], the “Evaluation B: Neurite-outgrowth action” value in the assay on PC12-HS cells [1] is “∘ (The test sample with a neurite outgrowth rate of 30% or higher was judged to be equivalent or more (∘) compared with NK-4)”.

As to `CCCCCN1/C(=C/C2=[N+](C)c3ccccc3C2(C)C)C(C)(C)c2ccccc21.[O-][Cl+3]([O-])([O-])[O-]` [NK-3206], in the assay on PC12-HS cells [1], the “Evaluation B: Neurite-outgrowth action” value is listed as “∘ (The test sample with a neurite outgrowth rate of 30% or higher was judged to be equivalent or more (∘) compared with NK-4)”.

For the origin of these results see US20120035187A1 (priority 2009, published 2012).
